According to patent US9464326B2, “Total and phosphorylated IL-1 receptor-associated kinase-1 and IL-1 receptor-associated kinase-4 as a biomarker for cancer progression and chemotherapy resistance” (University of Maryland, Baltimore, priority 2012, dated 2016):

How the values were obtained:
[1] = tested on: A375 melanoma cells; assay: Western blot of cleaved PARP and caspase-3; assay type: cell-based, human; details: for levels of cleaved PARP and caspase-3: 48 hrs, FIG. 8D
Experimental: FIG. 8. […] (A) A375 and Malme-3M melanoma cells were cultured with or without 2.5 μM of IRAK-1,-4 and in the presence varying concentrations of vinblastine, cisplatin or 5′ Fluorouracil. Forty-eight hours later apoptosis was evaluated by staining cells with annexin-V and propidium iodide and analyzed by flow cytometry. (B) A375 cells were transfected via electroporation with siRNA-IRAK-1,-4. IRAK-1 protein levels were examined by Western blotting. […], A375-psiRNA-hIRAK-1, A375-psiRNA-hIRAK-4, or cells expressing both psiRNA-hIRAK-1 and -4 were cultured in the presence of vinblastine (100 nmol/L) for 48 hours and apoptosis was examined by flow cytometry. (C) A375 melanoma cells were cultured in the presence of vehicle alone (DMSO) or various concentrations of IRAK-1,-4. Forty-eight hours later cell lysates were used to analyze the expression of levels of cleaved PARP or caspase-3 by Western blots. (D) A375 melanoma cells were cultured with or without 2.5 μM of IRAK.-1,-4 and in the presence or absence of vinblastine for 48 hrs. PARP and caspase-3 levels were determined by Western blot.
Total cell extracts were prepared from melanoma cells. […] Melanoma tissue arrays were purchased from US Biomax, Inc (Rockville, Md.). For immunohistochemical staining samples were stained with mouse monoclonal anti-human phosphor-IRAK.-4 antibody (Abnova; dilution, 3.5 μg/ml) or normal mouse serum. Tissue histology sections (5-μm-thick) were deparaffinized, hydrated, heated in boiling 10 mmol/L sodium citrate (pH 6.0), for antigen retrieval, for 30 min and washed in Tris buffer. Peroxide blocking was done with 3% […] in methanol at room temperature for 15 min, followed by 10% fetal bovine serum in TBS-t for 30 min at room temperature. Primary antibody incubation was done overnight at 4° C. Secondary antibody incubation with horse anti-mouse (1:200; Vector Laboratories, Burlingame, Calif.) was done for 1 hr, followed by application of diaminobenzidine chromogen for 5 min. The slides were then counterstained with hematoxylin and topped with a coverslip. IHC specimens were analyzed using “quick score” system in which the intensity of the immunohistochemical reaction was scored by multiplying the intensity 1 (weak), 2 (moderate), and 3 (strong) and the proportion of cells staining positively 0 (<10%), 1 (10-25%), 2 (26-50%), 3 (51-75%) or 4 (>75%).

[2] = molecular target: IRAK-1 (Homo sapiens, UniProt P51617); details: supplier (EMD Millipore) description; cited from earlier work
IRAK-1, sequence (P51617 whole entry): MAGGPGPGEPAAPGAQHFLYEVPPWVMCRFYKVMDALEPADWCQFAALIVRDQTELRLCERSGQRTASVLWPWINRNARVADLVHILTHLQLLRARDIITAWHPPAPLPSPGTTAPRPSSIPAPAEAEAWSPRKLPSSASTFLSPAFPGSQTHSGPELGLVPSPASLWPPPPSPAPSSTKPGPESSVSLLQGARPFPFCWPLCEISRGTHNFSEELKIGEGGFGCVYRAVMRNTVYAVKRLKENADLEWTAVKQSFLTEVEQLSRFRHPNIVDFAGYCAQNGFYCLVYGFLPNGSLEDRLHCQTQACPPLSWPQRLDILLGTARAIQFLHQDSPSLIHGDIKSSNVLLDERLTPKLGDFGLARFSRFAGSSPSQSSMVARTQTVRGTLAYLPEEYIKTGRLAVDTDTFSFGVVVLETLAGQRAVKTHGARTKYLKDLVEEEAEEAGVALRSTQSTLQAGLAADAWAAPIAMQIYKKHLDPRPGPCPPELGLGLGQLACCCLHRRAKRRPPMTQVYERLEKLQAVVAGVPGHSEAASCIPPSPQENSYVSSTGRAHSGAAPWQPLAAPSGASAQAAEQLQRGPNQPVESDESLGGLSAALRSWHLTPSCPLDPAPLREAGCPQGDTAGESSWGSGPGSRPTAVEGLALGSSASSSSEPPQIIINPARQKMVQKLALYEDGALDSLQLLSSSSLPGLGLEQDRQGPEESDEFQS

[3] = tested on: CCRF-CEM cells; assay: Western blot of signaling proteins in CCRF-CEM; assay type: cell-based, human; details: 5 uM, 48 hours, FIG. 3D
From the text: (FIG. 3C). […] (FIG. 3D). […] (FIG. 3D).

[4] = tested on: HSB-2; assay: Proliferation (3H-thymidine) of HSB-2; assay type: cell-based, human
From the text: (§1) CCRF-CEM, CEM/C1, CEM/C2, CEM-C7, Jurkat, Loucy, Molt-4, HSB-2, SUP-T1, Hut 78, HH, Hut 102, MO, and H9 T-leukemia and T-lymphoma cell lines were purchased from the American Type Culture Collection (Manassas, Va., USA). All of the cell lines were initially expanded and cryopreserved within one month of receipt. Cells were typically used for 6 months at which time a fresh vial of cryopreserved cells was used. Total T cells from healthy donors were isolated via negative selection followed by positive selection using a CD3+ selection kit (Invitrogen, Carlsbad, Calif.). T cells were isolated from patients with T-ALL bone marrow or peripheral blood samples containing more than 70% leukemia cells using a CD2+ isolation kit (STEMCELL Technologies, Vancouver, Canada). All tissues were collected under institutional IRB-approved protocols and all participants gave written informed assent/consent. For in vitro experiments, T-ALL cells were cultured in AIM-V medium supplemented with 20% human AB serum in the presence of recombinant human stem cell factor (50 ng/mL; Amgen, Thousand Oaks, Calif.), insulin (20 nM; Sigma-Aldrich, St Louis, Mo., USA) and IL-7 (50 ng/mL; R&D Systems, Minneapolis, Minn., USA). In other experiments, protein lysate was collected using the Full Moon Biosystems (Sunnyvale, Calif., USA) buffer prior to protein examination by western blot or protein array.
(§2) Cells were cultured in a 96-well plate (Corning Costar, Corning, N.Y., USA) with various concentrations of TLR ligands 1-9, starting at 10 μg/ml, in a final volume of 200 ul. TLR ligands were diluted 2-fold. Cell lines (25-40×10^3/well) were cultured for 54 hours, whereas fresh patient-derived T-ALL cells (200×10^3/well) were cultured for 30 hours prior to adding [^3H]-thymidine for 18 hours. After this time point, cells were harvested with a Packard Filter-Mate-96 cell harvester (Perkin Elmer, Waltham, Mass., USA) and counted on Packard Top Count-NXT (Perkin Elmer, Waltham, Mass., USA). Results were expressed as average counts per minute (cpm). In some experiments CCRF-CEM cells were pre-treated with TLR1-TLR2 ligand (Pam3CysK4; 2.5 ug/ml) for 48 hrs, washed, and then cultured in the presence of varying concentrations of FBS. Forty-eight hours later, proliferation (±SD) was determined by ^3H-thymidine incorporation. Alternatively, apoptosis was measured by flow cytometry after staining cells with Annexin-V (BD Pharmingen, San Diego, Calif., USA) and propidium iodide (Sigma). Cell number was counted under microscopy by staining cells with trypan blue.
(§3) The following TLR ligands were purchased from Invivogen (San Diego, Calif., USA): tripalmitoyl-S-(bis(palmitoyloxy)propyl)-Cys-Ser-(Lys)3-Lys (TLR1-2); Poly I:C (TLR3); ultrapure S. Minnesota Lipopolysaccharide (TLR4); S. typhimurium flagellin (TLR5); FSL-1 (TLR2/6); Imiquimod (TLR7); ssRNA40/Lyovec (TLR8); CpG-ODN 2006 (TLR9).

[5] = tested on: Loucy; assay: Proliferation (3H-thymidine) of Loucy; assay type: cell-based, human
From the text: as §1
as §2, with “blue. […]” for “blue.”

[6] = tested on: CEM-C7; assay: Proliferation (3H-thymidine) of CEM-C7; assay type: cell-based, human
From the text: as §1, §2, §3

Compound | levels of cleaved PARP and caspase-3 ([1]; 2.5 μmol/L IRAK-1,-4 inhibitor combined with vinblastine) | active caspase-3 ([1]; 10 μM, 48 h, FIG. 8C) | cleaved PARP ([1]; concentration-dependent, 48 h, FIG. 8C) | levels of cleaved PARP and caspase-3 ([1]; single agent alone) | inhibition of IRAK-1 [2] | decrease of phosphorylated-p65 levels [3] | p-ERK1/2 levels [3] | reduction of p-AKT expression levels [3] | reduction of p-mTOR expression levels [3] | Proliferative effects of TLR ligands ([4]; 3H-thymidine uptake, 72 h) | TLR ligand concentration in parentheses below the symbol ([4]; no unit in table (μg/ml)) | Proliferative effects of TLR ligands ([5]; 3H-thymidine uptake, 72 h) | TLR ligand concentration in parentheses below the symbol ([5]; no unit in table (μg/ml)) | Proliferative effects of TLR ligands ([6]; 3H-thymidine uptake, 72 h) | TLR ligand concentration in parentheses below the symbol ([6]; no unit in table (μg/ml))
O=C(Nc1nc2ccccc2n1CCN1CCOCC1)c1cccc([N+](=O)[O-])c1 [IRAK-1,-4 inhibitor] | increased the levels | detected | Enhanced accumulation | little effect | selectively inhibits | four-fold | did not alter | five-fold | approximately six-fold |  |  |  |  |  | 
tripalmitoyl-S-(bis(palmitoyloxy)propyl)-Cys-Ser-(Lys)3-Lys [Pam3Cysk4] |  |  |  |  |  |  |  |  |  | − (reduced proliferation) | (5) | + (enhanced proliferation by 25% or greater) | (2.5) | + (enhanced proliferation by 25% or greater) | (2.5)
